According to ChEMBL document CHEMBL5465560, “Selectivity Literature for EUbOPEN Chemogenomic Library” (2024):
One block for each molecule: values may come before it.

What was measured:
[1] = target: Dual specificity protein kinase CLK4 (Homo sapiens, UniProt Q9HAZ1); assay: Selectivity interaction (KinomeScan (DiscoverX)) EUB0000666a CLK4; details: at 10 µM
[2] = target: T1, Serine/threonine-protein kinase tousled-like 1 (Homo sapiens) (UniProt Q9UKI8); assay: Selectivity interaction (ActivX KiNativ screen (kinase selectivity in THP-1 cell lysates)) EUB0000639a TLK1; type: subcellular; details: lysate, at 0.2 µM
T1 sequence (whole entry): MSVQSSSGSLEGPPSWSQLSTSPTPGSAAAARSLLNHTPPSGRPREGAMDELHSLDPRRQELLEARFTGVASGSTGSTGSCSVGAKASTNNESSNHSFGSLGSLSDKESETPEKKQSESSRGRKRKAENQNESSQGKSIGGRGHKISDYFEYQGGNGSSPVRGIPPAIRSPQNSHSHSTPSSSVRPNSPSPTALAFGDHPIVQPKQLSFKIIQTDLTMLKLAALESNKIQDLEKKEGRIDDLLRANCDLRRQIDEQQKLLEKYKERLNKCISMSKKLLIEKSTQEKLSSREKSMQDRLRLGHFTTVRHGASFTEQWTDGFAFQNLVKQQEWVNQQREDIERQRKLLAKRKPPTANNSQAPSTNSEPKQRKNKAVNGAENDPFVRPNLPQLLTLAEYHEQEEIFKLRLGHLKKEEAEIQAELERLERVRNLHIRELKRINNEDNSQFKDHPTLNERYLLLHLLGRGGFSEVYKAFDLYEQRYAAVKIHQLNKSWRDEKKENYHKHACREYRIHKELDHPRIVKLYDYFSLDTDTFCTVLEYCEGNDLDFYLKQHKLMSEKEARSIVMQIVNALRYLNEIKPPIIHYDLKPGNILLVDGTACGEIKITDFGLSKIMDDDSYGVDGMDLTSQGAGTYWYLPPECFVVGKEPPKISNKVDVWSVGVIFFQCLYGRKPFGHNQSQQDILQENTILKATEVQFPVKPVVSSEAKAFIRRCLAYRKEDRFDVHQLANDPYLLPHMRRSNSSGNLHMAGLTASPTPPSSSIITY

[3] = target: Histone-lysine N-methyltransferase SETD2 (Homo sapiens) (UniProt Q9BYW2); assay: Selectivity interaction (Methyltransferase screen (Scintillation proximity assays)) EUB0000255b SETD2
[4] = target: T2, Cytoplasmic tyrosine-protein kinase BMX (Homo sapiens) (UniProt P51813); assay: Selectivity interaction (KinomeScan (DiscoverX)) EUB0000229b BMX; details: at 10 µM
T2 sequence (whole entry): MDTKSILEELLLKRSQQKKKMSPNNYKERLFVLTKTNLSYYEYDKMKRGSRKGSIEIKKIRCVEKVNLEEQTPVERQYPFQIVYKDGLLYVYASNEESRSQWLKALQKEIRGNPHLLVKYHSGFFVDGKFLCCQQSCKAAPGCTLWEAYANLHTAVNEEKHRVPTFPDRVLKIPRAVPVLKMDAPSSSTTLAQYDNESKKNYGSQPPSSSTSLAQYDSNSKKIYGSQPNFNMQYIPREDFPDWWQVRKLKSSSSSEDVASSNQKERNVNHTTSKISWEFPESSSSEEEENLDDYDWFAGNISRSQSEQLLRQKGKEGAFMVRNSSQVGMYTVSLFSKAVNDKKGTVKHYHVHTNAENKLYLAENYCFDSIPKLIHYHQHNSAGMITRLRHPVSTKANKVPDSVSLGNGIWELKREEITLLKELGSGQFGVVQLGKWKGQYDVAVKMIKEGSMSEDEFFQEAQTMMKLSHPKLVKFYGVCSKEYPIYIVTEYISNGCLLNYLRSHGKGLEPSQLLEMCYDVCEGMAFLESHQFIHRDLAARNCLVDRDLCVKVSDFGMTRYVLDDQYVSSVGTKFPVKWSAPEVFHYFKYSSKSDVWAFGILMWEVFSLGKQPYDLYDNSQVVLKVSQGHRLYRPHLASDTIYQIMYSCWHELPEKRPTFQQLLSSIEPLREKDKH

[5] = target: T3, Mitogen-activated protein kinase kinase kinase 13 (Homo sapiens) (UniProt O43283); assay: Selectivity interaction (KinomeScan (DiscoverX)) EUB0001619a MAP3K13; details: at 1 µM
T3 sequence (whole entry): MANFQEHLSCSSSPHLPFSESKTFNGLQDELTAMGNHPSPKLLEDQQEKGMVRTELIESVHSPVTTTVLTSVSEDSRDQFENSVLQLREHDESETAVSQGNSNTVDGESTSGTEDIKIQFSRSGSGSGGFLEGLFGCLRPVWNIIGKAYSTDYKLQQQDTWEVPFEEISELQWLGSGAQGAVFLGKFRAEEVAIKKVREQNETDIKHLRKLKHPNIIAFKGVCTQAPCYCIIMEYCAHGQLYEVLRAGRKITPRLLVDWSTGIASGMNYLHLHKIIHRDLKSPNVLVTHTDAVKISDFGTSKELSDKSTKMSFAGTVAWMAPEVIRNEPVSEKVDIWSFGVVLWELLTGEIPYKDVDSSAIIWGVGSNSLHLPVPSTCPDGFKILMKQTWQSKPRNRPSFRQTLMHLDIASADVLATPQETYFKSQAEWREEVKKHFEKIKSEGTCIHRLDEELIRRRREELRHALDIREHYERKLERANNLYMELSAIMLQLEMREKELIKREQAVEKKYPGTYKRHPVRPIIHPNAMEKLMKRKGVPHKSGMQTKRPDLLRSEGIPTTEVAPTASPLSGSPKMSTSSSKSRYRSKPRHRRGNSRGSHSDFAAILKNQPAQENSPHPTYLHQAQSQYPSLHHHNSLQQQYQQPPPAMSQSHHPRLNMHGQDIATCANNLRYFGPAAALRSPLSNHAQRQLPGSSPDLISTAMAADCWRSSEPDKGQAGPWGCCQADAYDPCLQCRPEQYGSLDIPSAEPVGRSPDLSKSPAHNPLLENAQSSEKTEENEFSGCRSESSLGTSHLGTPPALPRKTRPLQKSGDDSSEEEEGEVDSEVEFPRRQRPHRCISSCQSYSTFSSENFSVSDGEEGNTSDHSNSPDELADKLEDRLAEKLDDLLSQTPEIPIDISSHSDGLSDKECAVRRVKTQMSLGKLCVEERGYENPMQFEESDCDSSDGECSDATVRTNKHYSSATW

Chain of Histone-lysine N-methyltransferase SETD2 (Homo sapiens) (Q9BYW2 whole entry): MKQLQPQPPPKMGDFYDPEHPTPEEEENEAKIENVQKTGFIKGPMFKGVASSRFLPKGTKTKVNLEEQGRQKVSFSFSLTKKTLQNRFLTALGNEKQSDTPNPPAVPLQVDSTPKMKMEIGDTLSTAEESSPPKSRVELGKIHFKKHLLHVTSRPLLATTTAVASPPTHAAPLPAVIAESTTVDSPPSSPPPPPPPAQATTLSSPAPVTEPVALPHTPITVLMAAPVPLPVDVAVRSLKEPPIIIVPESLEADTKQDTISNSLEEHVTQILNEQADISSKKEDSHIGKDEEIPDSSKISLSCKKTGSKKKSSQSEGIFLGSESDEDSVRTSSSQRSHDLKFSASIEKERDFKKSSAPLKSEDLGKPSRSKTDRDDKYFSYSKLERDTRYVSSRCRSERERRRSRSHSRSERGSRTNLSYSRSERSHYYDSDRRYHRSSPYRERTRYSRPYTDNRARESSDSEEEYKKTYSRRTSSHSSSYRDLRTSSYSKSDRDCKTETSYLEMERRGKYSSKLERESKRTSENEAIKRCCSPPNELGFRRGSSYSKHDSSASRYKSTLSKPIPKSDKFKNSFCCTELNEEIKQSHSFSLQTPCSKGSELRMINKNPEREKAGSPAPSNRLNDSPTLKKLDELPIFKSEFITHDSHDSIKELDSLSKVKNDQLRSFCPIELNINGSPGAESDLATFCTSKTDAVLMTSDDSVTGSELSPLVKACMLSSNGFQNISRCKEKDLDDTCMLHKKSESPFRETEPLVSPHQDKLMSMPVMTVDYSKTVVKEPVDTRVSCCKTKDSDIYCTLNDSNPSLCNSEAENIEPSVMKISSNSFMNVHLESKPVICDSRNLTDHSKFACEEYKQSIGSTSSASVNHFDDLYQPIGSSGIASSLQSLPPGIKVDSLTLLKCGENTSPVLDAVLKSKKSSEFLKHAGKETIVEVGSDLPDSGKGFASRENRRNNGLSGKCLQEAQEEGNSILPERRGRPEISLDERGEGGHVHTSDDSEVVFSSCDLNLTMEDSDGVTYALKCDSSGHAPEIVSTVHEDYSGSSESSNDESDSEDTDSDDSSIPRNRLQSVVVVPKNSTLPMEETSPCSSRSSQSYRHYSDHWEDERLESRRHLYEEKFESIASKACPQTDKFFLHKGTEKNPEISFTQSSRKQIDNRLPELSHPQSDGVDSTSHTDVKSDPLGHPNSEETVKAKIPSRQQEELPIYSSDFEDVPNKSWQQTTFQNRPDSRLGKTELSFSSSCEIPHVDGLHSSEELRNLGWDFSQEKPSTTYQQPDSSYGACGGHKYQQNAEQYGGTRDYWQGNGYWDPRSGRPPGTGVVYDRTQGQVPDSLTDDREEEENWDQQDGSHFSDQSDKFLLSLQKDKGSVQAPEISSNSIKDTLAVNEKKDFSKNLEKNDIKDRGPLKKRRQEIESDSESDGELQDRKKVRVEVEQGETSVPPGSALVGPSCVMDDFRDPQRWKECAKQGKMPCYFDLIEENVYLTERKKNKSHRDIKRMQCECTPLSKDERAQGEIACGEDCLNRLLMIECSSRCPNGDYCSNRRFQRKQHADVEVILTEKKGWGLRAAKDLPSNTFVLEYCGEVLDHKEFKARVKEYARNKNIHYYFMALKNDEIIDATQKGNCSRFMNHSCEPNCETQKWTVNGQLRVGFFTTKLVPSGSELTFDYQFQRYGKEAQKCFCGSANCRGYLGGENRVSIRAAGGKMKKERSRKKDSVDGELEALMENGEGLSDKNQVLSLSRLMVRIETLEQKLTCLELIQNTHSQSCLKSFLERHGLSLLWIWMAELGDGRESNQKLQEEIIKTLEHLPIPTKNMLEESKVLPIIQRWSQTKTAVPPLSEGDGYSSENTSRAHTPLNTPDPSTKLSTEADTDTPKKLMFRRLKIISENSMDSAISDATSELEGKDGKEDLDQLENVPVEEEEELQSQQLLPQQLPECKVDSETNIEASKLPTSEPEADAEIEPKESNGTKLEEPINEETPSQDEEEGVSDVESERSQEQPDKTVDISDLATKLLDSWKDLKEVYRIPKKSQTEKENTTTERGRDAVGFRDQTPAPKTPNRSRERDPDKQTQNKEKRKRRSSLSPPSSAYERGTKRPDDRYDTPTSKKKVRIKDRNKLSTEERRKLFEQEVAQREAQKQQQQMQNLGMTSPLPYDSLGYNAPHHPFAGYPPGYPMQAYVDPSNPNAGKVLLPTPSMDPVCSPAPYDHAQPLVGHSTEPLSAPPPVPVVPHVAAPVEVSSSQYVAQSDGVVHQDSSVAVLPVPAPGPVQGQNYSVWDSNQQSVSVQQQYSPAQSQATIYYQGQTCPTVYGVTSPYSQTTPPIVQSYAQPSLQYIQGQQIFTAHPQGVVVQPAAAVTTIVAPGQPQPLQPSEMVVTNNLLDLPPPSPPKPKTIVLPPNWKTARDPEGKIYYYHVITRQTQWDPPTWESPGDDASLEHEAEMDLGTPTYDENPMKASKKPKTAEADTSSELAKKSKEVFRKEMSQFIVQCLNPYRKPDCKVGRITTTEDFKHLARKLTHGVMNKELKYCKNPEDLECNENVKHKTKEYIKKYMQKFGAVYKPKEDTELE
Chain of Dual specificity protein kinase CLK4 (Q9HAZ1 whole entry, looked up): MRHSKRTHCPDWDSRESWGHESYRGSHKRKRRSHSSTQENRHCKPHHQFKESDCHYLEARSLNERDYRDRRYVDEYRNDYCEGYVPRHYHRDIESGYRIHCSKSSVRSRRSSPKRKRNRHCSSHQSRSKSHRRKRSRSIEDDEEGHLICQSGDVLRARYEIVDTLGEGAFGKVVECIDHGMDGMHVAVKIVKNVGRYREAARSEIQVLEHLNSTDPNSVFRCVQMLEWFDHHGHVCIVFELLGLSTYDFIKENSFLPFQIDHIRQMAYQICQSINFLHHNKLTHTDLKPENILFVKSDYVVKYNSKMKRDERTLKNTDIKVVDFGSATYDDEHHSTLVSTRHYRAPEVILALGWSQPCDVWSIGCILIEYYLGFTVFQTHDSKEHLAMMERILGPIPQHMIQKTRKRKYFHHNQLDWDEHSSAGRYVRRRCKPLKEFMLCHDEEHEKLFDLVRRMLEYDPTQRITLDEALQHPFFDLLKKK

Compound: O=C(NOC[C@H](O)CO)c1ccc(F)c(F)c1Nc1ccc(I)cc1F
- % of control [1]: 89%

- % of inhibition [2]: 9.2%
Compound: CC[C@@H]1[C@H](F)C(=O)N[C@@H]1COc1nccc2cc(C(N)=O)c(OC)cc12 [ZIMLOVISERTIB]

Compound: COCCN1CCC(c2cc(CN(C)C(=O)c3cccc(Oc4ccccc4)c3)ccn2)CC1
- % activity ([3]; at 1 µM): > 95%
- % activity ([3]; at 10 µM): > 90%

Compound: COc1cc(N(C)c2ccnc3ccc(C(F)(F)F)cc23)cc(OC)c1OC
- % binding [4]: 88%

Compound: N#Cc1cccc(-c2c[nH]c3ncnc(N4CCOCC4)c23)c1
- % of control [5]: 62%
